# Read-outs that look alike come from different tables or passages of the source.
# Key:
# [1] = system: K. pneumoniae; assay: MIC, CLSI broth microdilution in CAMHB with 0-10% pulmonary surfactant (avibactam fixed at 4 μg/mL in combination); format: cell-based; conditions: Klebsiella pneumoniae
# Method: (§1) The bacterial strains used in this testing were part of the microbiological culture collection housed at AstraZeneca R&D Boston (AstraZeneca Research Collection, designated ARC). The panel of bacterial isolates used for this testing was comprised of five CLSI QC reference strains and the remainder were either recent clinical isolates expressing β-lactamases or isolates from the primary bacterial screening panels.
# (§2) MIC values were determined using the CLSI broth microdilution methodology with slight variation. Stock compound mother plates were prepared and used to spot 2 μL aliquots of serial 2-fold drug dilutions to columns 1-11 of 96-well daughter plates using a Perkin-Elmer MiniTrak™ MultiPosition dispenser. […] An inoculum volume of 100 μL (5×10E^5 CFU/mL) in CAMHB containing 0, 1, 2.5, 5, or 10% pulmonary surfactant was added using a multichannel Finnpipette® to each well of the 96-well plate.
# (§3) The minimum inhibitory concentration (MIC) values against each organism/drug combination were determined using broth microdilution methodology according to CLSI guidelines. The recommended reference bacterial strains for each test group and reference compounds were incorporated into each test. For Gram-negatives, the reference bacterial strains were Escherichia coli ATCC 25922, E. coli ATCC 35218, Klebsiella pneumoniae ATCC 700603, and Pseudomonas aeruginosa ATCC 27853. Staphylococcus aureus ATCC 29213 was the reference bacterial strain for the Gram-positives.
# (§4) MIC values for individual isolates were read visually. The MICs for each compound or combination in pulmonary surfactant was compared to the compound or combination tested in CAMHB alone.
# [2] = system: P. aeruginosa; assay: as above; format: cell-based, Pseudomonas aeruginosa; conditions: Pseudomonas aeruginosa, read-out: MIC
# Method: as §1, §2, §3, §4
# [3] = system: Gram-negative isolates; assay: MIC alone compared with MIC in presence of Cmax and 0.5×Cmax of vancomycin and linezolid, all Gram-negative isolates; format: cell-based; conditions: with Cmax and 0.5×Cmax of vancomycin and linezolid
# Method: Initial MIC data were determined by microbroth dilution methods as recommended by CLSI (2012b). Checkerboards were made in accordance with the method given by Pillai et. al., ? Antimicrobial Combinations in Antibiotics, LABORATORY MEDICINE (Lorian Ed., 3rd Ed. (2003)) p. 365-440 as per standard microbroth dilution tests but with agents in combination. […] A final avibactam concentration of 4 mg/L was used throughout the study. Antibacterial agents were combined into microtitre plates using the Evolution III liquid handling system.
# [4] = Protein binding, equilibrium dialysis chamber, LC-MS/MS; format: in vitro ADME
# Method: Blood was separated from plasma using a cooled centrifuge. Samples were split and stored at −80° C.
structure (smiles),measurement,setting,value
"CC(C)(O/N=C(\C(=O)N[C@@H]1C(=O)N2C(C(=O)[O-])=C(C[n+]3ccccc3)CS[C@H]12)c1csc(N)n1)C(=O)O [ceftazidime, (6R,7R)-7-[[(2Z)-2-(2-amino-1,3-thiazol-4-yl)-2-(1-hydroxy-2-methyl-1-oxopropan-2-yl)oxyiminoacetyl]amino]-8-oxo-3-(pyridin-1-ium-1-ylmethyl)-5-thia-1-azabicyclo[4.2.0]oct-2-ene-2-carboxylate pentahydrate]",MIC,"[1]; K. pneumoniae ARC2528 (Clinical isolate), surfactant 1%",2 µg/mL
same,MIC,"[1]; K. pneumoniae ARC2528 (Clinical isolate), surfactant 2.5%",1 µg/mL
same,MIC,"[1]; K. pneumoniae ARC2528 (Clinical isolate), surfactant 5%",1 µg/mL
same,MIC,"[1]; K. pneumoniae ARC2528 (Clinical isolate), surfactant 10%",1 µg/mL
same,MIC,"[1]; K. pneumoniae ARC2929 (KPC-3), surfactant 0%",> 64 µg/mL
same,MIC,"[1]; K. pneumoniae ARC2929 (KPC-3), surfactant 1%",> 64 µg/mL
same,MIC,"[1]; K. pneumoniae ARC2929 (KPC-3), surfactant 2.5%",> 64 µg/mL
same,MIC,"[1]; K. pneumoniae ARC2929 (KPC-3), surfactant 5%",> 64 µg/mL
same,MIC,"[1]; K. pneumoniae ARC2929 (KPC-3), surfactant 10%",> 64 µg/mL
same,MIC,"[1]; K. pneumoniae ARC2945 (KPC-2, SHV-11, TEM-1, OXA-9), surfactant 0%",64 µg/mL
same,MIC,"[1]; K. pneumoniae ARC2945 (KPC-2, SHV-11, TEM-1, OXA-9), surfactant 1%",64 µg/mL
same,MIC,"[1]; K. pneumoniae ARC2945 (KPC-2, SHV-11, TEM-1, OXA-9), surfactant 2.5%",64 µg/mL
same,MIC,"[1]; K. pneumoniae ARC2945 (KPC-2, SHV-11, TEM-1, OXA-9), surfactant 5%",64 µg/mL
same,MIC,"[1]; K. pneumoniae ARC2945 (KPC-2, SHV-11, TEM-1, OXA-9), surfactant 10%",64 µg/mL
same,MIC,"[1]; K. pneumoniae ARC3713 (CTX-M-15, OXA-1/30, SHV-5, TEM-1), surfactant 0%",> 64 µg/mL
same,MIC,"[1]; K. pneumoniae ARC3713 (CTX-M-15, OXA-1/30, SHV-5, TEM-1), surfactant 1%",> 64 µg/mL
same,MIC,"[1]; K. pneumoniae ARC3713 (CTX-M-15, OXA-1/30, SHV-5, TEM-1), surfactant 2.5%",> 64 µg/mL
same,MIC,"[1]; K. pneumoniae ARC3713 (CTX-M-15, OXA-1/30, SHV-5, TEM-1), surfactant 5%",> 64 µg/mL
same,MIC,"[1]; K. pneumoniae ARC3713 (CTX-M-15, OXA-1/30, SHV-5, TEM-1), surfactant 10%",> 64 µg/mL
same,MIC,"[2]; ATCC27853, P. aeruginosa ARC3 (CLSI QC strain, ATCC 27853), surfactant 1%",1 µg/mL
same,MIC,"[2]; ATCC27853, P. aeruginosa ARC3 (CLSI QC strain, ATCC 27853), surfactant 2.5%",2 µg/mL
same,MIC,"[2]; ATCC27853, P. aeruginosa ARC3 (CLSI QC strain, ATCC 27853), surfactant 5%",1 µg/mL
same,MIC,"[2]; ATCC27853, P. aeruginosa ARC3 (CLSI QC strain, ATCC 27853), surfactant 10%",2 µg/mL
same,MIC,"[2]; ATCC27853, P. aeruginosa ARC3 (CLSI QC strain, ATCC 27853), surfactant 0%",1 µg/mL
same,MIC,"[2]; P. aeruginosa ARC2532 (Clinical isolate), surfactant 0%",2 µg/mL
same,MIC,"[2]; P. aeruginosa ARC2532 (Clinical isolate), surfactant 1%",2 µg/mL
same,MIC,"[2]; P. aeruginosa ARC2532 (Clinical isolate), surfactant 2.5%",2 µg/mL
same,MIC,"[2]; P. aeruginosa ARC2532 (Clinical isolate), surfactant 5%",2 µg/mL
same,MIC,"[2]; P. aeruginosa ARC2532 (Clinical isolate), surfactant 10%",2 µg/mL
same,MIC,"[2]; P. aeruginosa ARC2761 (Clinical isolate), surfactant 1%",2 µg/mL
same,MIC,"[2]; P. aeruginosa ARC2761 (Clinical isolate), surfactant 2.5%",1 µg/mL
same,MIC,"[2]; P. aeruginosa ARC2761 (Clinical isolate), surfactant 5%",2 µg/mL
same,MIC,"[2]; P. aeruginosa ARC2761 (Clinical isolate), surfactant 10%",2 µg/mL
same,MIC,"[2]; P. aeruginosa ARC3508 (derepressed AmpC), surfactant 0%",32 µg/mL
same,MIC,"[2]; P. aeruginosa ARC3508 (derepressed AmpC), surfactant 1%",32 µg/mL
same,MIC,"[2]; P. aeruginosa ARC3508 (derepressed AmpC), surfactant 2.5%",32 µg/mL
same,MIC,"[2]; P. aeruginosa ARC3508 (derepressed AmpC), surfactant 5%",32 µg/mL
same,MIC,"[2]; P. aeruginosa ARC3508 (derepressed AmpC), surfactant 10%",32 µg/mL
same,MIC,"[2]; PAO1, P. aeruginosa ARC545 (PAO1), surfactant 0%",1 µg/mL
same,MIC,"[2]; PAO1, P. aeruginosa ARC545 (PAO1), surfactant 1%",1 µg/mL
same,MIC,"[2]; PAO1, P. aeruginosa ARC545 (PAO1), surfactant 2.5%",1 µg/mL
same,MIC,"[2]; PAO1, P. aeruginosa ARC545 (PAO1), surfactant 5%",1 µg/mL
same,MIC,"[2]; PAO1, P. aeruginosa ARC545 (PAO1), surfactant 10%",1 µg/mL
same,MIC,"[2]; P. aeruginosa ARC2761 (Clinical isolate), surfactant 0%",2 µg/mL
same,MIC alone and in combination,[3],remained within one doubling dilution in all cases
same,fraction unbound,[4],0.9
